According to ChEMBL document CHEMBL2439961, “Synthesis and evaluation of the cell cycle arrest and CT DNA interaction properties of 4β-amino-4'-O-demethyl-4-deoxypodophyllotoxins” (Bioorg Med Chem, 2013):
Active and inactive are the calls of the source. The rule behind the calls is not given here.

Key:
HepG2 = experiment: Cytotoxicity against human HepG2 cells after 48 hrs by MTT assay; assay type: functional, cell-based; conditions: HepG2, 48 h
HCT-8 = experiment: Cytotoxicity against human HCT8 cells after 48 hrs by MTT assay; assay type: functional, cell-based; conditions: HCT-8, 48 h
A549 = experiment: Cytotoxicity against human A549 cells after 48 hrs by MTT assay; assay type: functional, cell-based; conditions: A549, 48 h
HeLa [1] = experiment: Cytotoxicity against human HeLa cells after 48 hrs by MTT assay; assay type: functional, cell-based
HeLa [2] = experiment: Increase of cyclin-B1 protein level in human HeLa cells Western blotting analysis; assay type: functional, cell-based
HeLa [3] = experiment: Induction of apoptosis in human HeLa cells assessed as cell shrinkage, nuclear fragmentation and condensation dispersed throughout cytoplasm at 0.5 uM by immunofluorescence analysis; assay type: functional, cell-based; conditions: TDE = time-dependent effect
HeLa [4] = experiment: Cell cycle arrest in human HeLa cells assessed as accumulation at sub-G1 phase at 1 uM after 24 hrs using propidium iodide staining by FACS analysis (reference value: 0%); assay type: functional
HeLa [5] = experiment: Cell cycle arrest in human HeLa cells assessed as accumulation at G1 phase at 0.5 uM after 24 hrs using propidium iodide staining by FACS analysis (reference value: 48.5%); assay type: functional
DNA [6] = experiment: Binding affinity to calf thymus DNA at 0.5 mM after 5 mins by fluorescence analysis; assay type: nucleic-acid assay; conditions: Bos taurus
HeLa [7] = experiment: Cell cycle arrest in human HeLa cells assessed as accumulation at sub-G1 phase at 0.5 uM after 24 hrs using propidium iodide staining by FACS analysis (reference value: 0%); assay type: functional
HeLa [8] = experiment: Cell cycle arrest in human HeLa cells assessed as accumulation at S phase at 1 uM after 24 hrs using propidium iodide staining by FACS analysis (reference value: 27.1%); assay type: functional
HeLa [9] = experiment: Induction of apoptosis in human HeLa cells assessed as late apoptotic cells at 0.5 uM after 24 hrs using annexin V-FITC/PI and Hoechst 33258 staining by FACS analysis (reference value: 2.39%); assay type: functional
HeLa [10] = experiment: Induction of morphological changes in human HeLa cells by immunofluorescence analysis; assay type: functional, cell-based; conditions: TDE = time-dependent effect
HeLa [11] = experiment: Cell cycle arrest in human HeLa cells assessed as accumulation at G1 phase at 1 uM after 24 hrs using propidium iodide staining by FACS analysis (reference value: 48.5%); assay type: functional
HeLa [12] = experiment: Induction of apoptosis in human HeLa cells assessed as late apoptotic cells at 0.25 uM after 24 hrs using annexin V-FITC/PI and Hoechst 33258 staining by FACS analysis (reference value: 2.39%); assay type: functional
HeLa [13] = experiment: Increase of caspase-3 protein level in human HeLa cells Western blotting analysis; assay type: functional, cell-based
HeLa [14] = experiment: Induction of microtubule depolymerization in human HeLa cells assessed as short and dense microtubule networks at 0.5 uM using DAPI staining by immunofluorescence analysis; assay type: cell-based; conditions: TDE = time-dependent effect
HeLa [15] = experiment: Induction of apoptosis in human HeLa cells assessed as early apoptotic cells at 0.5 uM after 24 hrs using annexin V-FITC/PI and Hoechst 33258 staining by FACS analysis (reference value: 2.34%); assay type: functional
HeLa [16] = experiment: Increase of CDC2 protein level in human HeLa cells Western blotting analysis; assay type: functional, cell-based
DNA [17] = experiment: Binding affinity to calf thymus DNA assessed as reduction in intensity of positive band at 5 to 40 ug/ml after 24 hrs by circular dichroism analysis; assay type: nucleic-acid assay; conditions: Bos taurus
HeLa [18] = experiment: Cell cycle arrest in human HeLa cells assessed as accumulation at G2/M phase after 24 hrs using propidium iodide staining by FACS analysis; assay type: functional, cell-based
HeLa [19] = experiment: Cell cycle arrest in human HeLa cells assessed as accumulation at G2/M phase at 0.5 uM after 24 hrs using propidium iodide staining by FACS analysis (reference value: 24.4%); assay type: functional
HeLa [20] = experiment: Cell cycle arrest in human HeLa cells assessed as accumulation at G2/M phase at 1 uM after 24 hrs using propidium iodide staining by FACS analysis (reference value: 24.4%); assay type: functional
HeLa [21] = experiment: Induction of apoptosis in human HeLa cells assessed as cell shrinkage, nuclear fragmentation and condensation dispersed throughout cytoplasm at 0.5 uM after 48 hrs by immunofluorescence analysis; assay type: functional, cell-based
HeLa [22] = experiment: Induction of microtubule depolymerization in human HeLa cells assessed as short and dense microtubule networks at 0.5 uM after 48 hrs using DAPI staining by immunofluorescence analysis; assay type: cell-based
HeLa [23] = experiment: Induction of apoptosis in human HeLa cells assessed as early apoptotic cells at 0.25 uM after 24 hrs using annexin V-FITC/PI and Hoechst 33258 staining by FACS analysis (reference value: 2.34%); assay type: functional
HeLa [24] = experiment: Induction of morphological changes in human HeLa cells after 48 hrs by immunofluorescence analysis; assay type: functional, cell-based
HeLa [25] = experiment: Increase of p53 protein level in human HeLa cells Western blotting analysis; assay type: functional, cell-based
HeLa [26] = experiment: Cell cycle arrest in human HeLa cells assessed as accumulation at S phase at 0.5 uM after 24 hrs using propidium iodide staining by FACS analysis (reference value: 27.1%); assay type: functional

## COc1cc([C@@H]2c3cc4c(cc3[C@@H](NCCNc3ccc([N+](=O)[O-])cc3)[C@H]3COC(=O)[C@H]23)OCO4)cc(OC)c1O
HepG2
  IC50: 32.3 µM
HCT-8
  IC50: 14.8 µM
A549
  IC50: 25.8 µM
HeLa [1]
  IC50: 14.8 µM

## COc1cc([C@@H]2c3cc4c(cc3[C@@H](N3CCN(C)CC3)[C@H]3COC(=O)[C@H]23)OCO4)cc(OC)c1O
HepG2
  IC50: 2.72 µM
HCT-8
  IC50: 12.4 µM
A549
  IC50: 26.4 µM
HeLa [1]
  IC50: 3.4 µM

## COc1cc([C@@H]2c3cc4c(cc3[C@@H](O[C@@H]3O[C@@H]5CO[C@@H](C)O[C@H]5[C@H](O)[C@H]3O)[C@H]3COC(=O)[C@H]23)OCO4)cc(OC)c1O [ETOPOSIDE]
HepG2
  IC50: 11.5 µM
HCT-8
  IC50: 6.54 µM
HeLa [1]
  IC50: 4.73 µM

## COc1cc([C@@H]2c3cc4c(cc3[C@@H](N3CCN(C5CCCC5)CC3)[C@H]3COC(=O)[C@H]23)OCO4)cc(OC)c1O
HepG2
  IC50: 8.42 µM
HCT-8
  IC50: 10.2 µM
A549
  IC50: 14.5 µM
HeLa [1]
  IC50: 11.6 µM

## COc1cc([C@@H]2c3cc4c(cc3[C@@H](Nc3ccc(S(=O)(=O)N5CCN(c6ccc([N+](=O)[O-])cc6)CC5)cc3)[C@H]3COC(=O)[C@H]23)OCO4)cc(OC)c1O
HepG2
  IC50: 38.6 µM
HCT-8
  IC50: 32.5 µM
A549
  IC50: 42.3 µM
HeLa [1]
  IC50: 27.8 µM

## COc1cc([C@@H]2c3cc4c(cc3[C@@H](NCCCNc3ccc([N+](=O)[O-])cc3)[C@H]3COC(=O)[C@H]23)OCO4)cc(OC)c1O
HepG2
  IC50: 22.4 µM
HCT-8
  IC50: 19.7 µM
A549
  IC50: 43.2 µM
HeLa [1]
  IC50: 10.5 µM

## COc1cc([C@@H]2c3cc4c(cc3[C@@H](Nc3ccc(S(=O)(=O)N5CCN(c6ccc(F)cc6)CC5)cc3)[C@H]3COC(=O)[C@H]23)OCO4)cc(OC)c1O
HepG2
  IC50: 54.4 µM
HCT-8
  IC50: 30.4 µM
A549
  IC50: 57.3 µM
HeLa [1]
  IC50: 21.9 µM

## COc1cc([C@@H]2c3cc4c(cc3[C@@H](N3CCN(c5ccc([N+](=O)[O-])cc5)CC3)[C@H]3COC(=O)[C@H]23)OCO4)cc(OC)c1O
HeLa [2]
  Activity: Dose-dependent effect
HeLa [3]
  Activity: tde
HeLa [4]
  Activity: 4.9%
HeLa [5]
  Activity: 5.9%
DNA [6]
  Activity: Active
HeLa [7]
  Activity: 1%
HepG2
  IC50: 1.43 µM
HeLa [8]
  Activity: 28.6%
HeLa [9]
  Activity: 4.76%
HeLa [10]
  Activity: tde
HeLa [11]
  Activity: 0.1%
HeLa [12]
  Activity: 3.54%
HeLa [13]
  Activity: Dose-dependent effect
HeLa [14]
  Activity: tde
HCT-8
  IC50: 2.12 µM
HeLa [15]
  Activity: 4.88%
A549
  IC50: 0.16 µM
HeLa [16]
  Activity: Dose-dependent effect
DNA [17]
  Activity: Active
HeLa [18]
  Activity: Dose-dependent effect
HeLa [19]
  Activity: 35.4%
HeLa [20]
  Activity: 71.4%
HeLa [21]
  Activity: Active
HeLa [22]
  Activity: Active
HeLa [23]
  Activity: 3.99%
HeLa [24]
  Activity: Active
HeLa [1]
  IC50: 0.07 µM
HeLa [25]
  Activity: Dose-dependent effect
HeLa [26]
  Activity: 58.7%

## COc1cc([C@@H]2c3cc4c(cc3[C@@H](N3CCN(c5ccc(F)cc5)CC3)[C@H]3COC(=O)[C@H]23)OCO4)cc(OC)c1O
HepG2
  IC50: 20.6 µM
HCT-8
  IC50: 14.3 µM
A549
  IC50: 27.3 µM
HeLa [1]
  IC50: 13.6 µM

## CCN1CCN([C@@H]2c3cc4c(cc3[C@@H](c3cc(OC)c(O)c(OC)c3)[C@H]3C(=O)OC[C@@H]32)OCO4)CC1
HepG2
  IC50: 5.41 µM
HCT-8
  IC50: 19.8 µM
A549
  IC50: 28.8 µM
HeLa [1]
  IC50: 3.81 µM

## COc1cc([C@@H]2c3cc4c(cc3[C@@H](Nc3ccc(S(=O)(=O)NC5CCCC5)cc3)[C@H]3COC(=O)[C@H]23)OCO4)cc(OC)c1O
HepG2
  IC50: 47.6 µM
HCT-8
  IC50: 38.7 µM
A549
  IC50: 52.4 µM
HeLa [1]
  IC50: 35.2 µM
